For data set [1], the target named is T1, N-acylethanolamine acid amidase (NAAA) (Rattus norvegicus, UniProt Q5KTC7).
T1 sequence (Q5KTC7 34-130): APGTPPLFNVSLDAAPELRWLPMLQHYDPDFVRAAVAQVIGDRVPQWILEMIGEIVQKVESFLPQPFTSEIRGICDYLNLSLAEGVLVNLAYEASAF
T1 sequence (Q5KTC7 131-362): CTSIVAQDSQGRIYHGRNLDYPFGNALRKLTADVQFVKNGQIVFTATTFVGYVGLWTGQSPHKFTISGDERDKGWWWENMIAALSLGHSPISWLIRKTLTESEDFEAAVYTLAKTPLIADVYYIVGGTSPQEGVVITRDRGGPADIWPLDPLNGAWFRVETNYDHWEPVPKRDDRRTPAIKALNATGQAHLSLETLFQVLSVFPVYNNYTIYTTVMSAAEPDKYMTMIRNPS
In words: LC/MS enzyme activity assay in HEK-rNAAA cell preparations. Type of data set: biochemical.

Substrate in data set [2]: CCCCCC/C=C\CCCCCCCCC(=O)NCCO
The data set is described as follows: Michaelis-Menten analysis by LC/MS of heptadecenoic acid formation. Format: biochemical, Rattus norvegicus.

The IC50 is the point on the concentration scale where inhibition reaches its midpoint. In data set [1], `C[C@@H]1OC(=O)[C@@H]1NC(=O)OCCCCCc1ccccc1` [ARN077, 5-phenylpentyl N-[(2S,3R)-2-methyl-4-oxo-oxetan-3-yl] carbamate] had a half-inhibitory concentration (IC50) of 0.011 µM.

B1: N-acylethanolamine acid amidase (NAAA) (Rattus norvegicus) (protein)
chain 1: T1 sequence (Q5KTC7 34-130)
chain 2: T1 sequence (Q5KTC7 131-362)
By Vmax is commonly meant the top rate of the reaction or transport when substrate is in excess. As to B1, the Vmax in data set [2] stood at 0.0154 µmol/min/mg.
